According to patent US20230150970A1, “AMINOPYRIMIDINE DERIVATIVES AND THEIR USE AS ARYL HYDROCARBON RECEPTOR MODULATORS” (DONG-A ST CO., LTD., priority 2020, published 2023):

biological target: T1, AhR (Homo sapiens, UniProt P35869); experiment: In Vitro Assay 1: XRE-luciferase reporter assay, antagonism in human cell line (HepG2); conditions: Assay 1: AhR-Luc Human Antagonism (IC50, nM), values marked *: kynurenine 50 μM, 6 hours
T1 sequence (P35869 11-848): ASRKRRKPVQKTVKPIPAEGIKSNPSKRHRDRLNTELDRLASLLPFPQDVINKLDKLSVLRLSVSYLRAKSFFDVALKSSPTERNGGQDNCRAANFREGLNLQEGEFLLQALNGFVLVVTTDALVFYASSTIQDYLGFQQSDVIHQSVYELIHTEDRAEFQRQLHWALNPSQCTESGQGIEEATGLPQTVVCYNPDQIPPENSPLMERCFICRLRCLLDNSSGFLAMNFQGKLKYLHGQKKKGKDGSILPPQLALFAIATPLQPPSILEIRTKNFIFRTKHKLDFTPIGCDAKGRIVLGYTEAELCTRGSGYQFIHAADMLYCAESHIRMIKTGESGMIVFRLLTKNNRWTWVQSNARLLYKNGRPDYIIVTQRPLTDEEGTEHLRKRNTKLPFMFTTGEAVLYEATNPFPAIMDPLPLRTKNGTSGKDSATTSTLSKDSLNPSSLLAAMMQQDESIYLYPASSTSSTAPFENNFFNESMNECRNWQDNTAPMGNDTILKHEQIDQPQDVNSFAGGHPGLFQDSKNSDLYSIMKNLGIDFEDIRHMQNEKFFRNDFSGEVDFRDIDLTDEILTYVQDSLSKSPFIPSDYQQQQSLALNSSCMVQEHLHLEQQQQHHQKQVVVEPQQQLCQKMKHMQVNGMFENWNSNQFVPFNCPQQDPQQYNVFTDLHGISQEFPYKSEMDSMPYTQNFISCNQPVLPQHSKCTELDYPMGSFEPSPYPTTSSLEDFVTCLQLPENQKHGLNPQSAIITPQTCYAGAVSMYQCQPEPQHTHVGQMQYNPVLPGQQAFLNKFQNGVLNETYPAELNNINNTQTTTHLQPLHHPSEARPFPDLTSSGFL

SMILES	IC50
Cc1ccc(N2CCN(c3cc(-c4ccc(Cl)cc4)nc(-c4cccnc4)n3)CC2)cc1 [Example 115, 4-(4-chlorophenyl)-2-(pyridin-3-yl)-6-(4-(p-tolyl)piperazin-1-yl)pyrimidine]	> 1000 nM
Cc1cccc(N2CCN(c3cc(-c4ccc(Cl)cc4)nc(-c4cccnc4)n3)CC2)c1 [Example 116, 4-(4-chlorophenyl)-2-(pyridin-3-yl)-6-(4-(m-tolyl)piperazin-1-yl)pyrimidine]	> 1000 nM
FC(F)(F)c1cccc(N2CCN(c3cc(-c4ccc(Cl)cc4)nc(-c4cccnc4)n3)CC2)c1 [Example 117, 4-(4-chlorophenyl)-2-(pyridin-3-yl)-6-(4-(3-(trifluoromethyl)phenyl)piperazin-1-yl)pyrimidine]	100 to 1000 nM
Clc1ccc(-c2cc(N3CCN(c4ccc(Cl)c(Cl)c4)CC3)nc(-c3cccnc3)n2)cc1 [Example 119, 4-(4-chlorophenyl)-6-(4-(3,4-dichlorophenyl)piperazin-1-yl)-2-(pyridin-3-yl)pyrimidine]	> 1000 nM
COc1ccc(N2CCN(c3cc(-c4ccc(Cl)cc4)nc(-c4cccnc4)n3)CC2)cc1 [Example 120, 4-(4-chlorophenyl)-6-(4-(4-methoxyphenyl)piperazin-1-yl)-2-(pyridin-3-yl)pyrimidine]	< 10 nM
O=[N+]([O-])c1ccc(N2CCN(c3cc(-c4ccc(Cl)cc4)nc(-c4cccnc4)n3)CC2)cc1 [Example 121, 4-(4-chlorophenyl)-6-(4-(4-nitrophenyl)piperazin-1-yl)-2-(pyridin-3-yl)pyrimidine]	> 1000 nM
Clc1ccc(-c2cc(N3CCN(C(c4ccccc4)c4ccccc4)CC3)nc(-c3cccnc3)n2)cc1 [Example 123, 4-(4-benzhydrylpiperazin-1-yl)-6-(4-chlorophenyl)-2-(pyridin-3-yl)pyrimidine]	> 1000 nM
Clc1ccc(-c2cc(N3CCN(C(c4ccccc4)c4ccc(Cl)cc4)CC3)nc(-c3cccnc3)n2)cc1 (stereo not drawn) [Example 124, 4-(4-chlorophenyl)-6-(4-((4-chlorophenyl)(phenyl)methyl)piperazin-1-yl)-2-(pyridin-3-yl)pyrimidine]	> 1000 nM
Clc1ccc(-c2cc(N3CCC4(C=Cc5ccccc54)CC3)nc(-c3cccnc3)n2)cc1 [Example 125, 1′-(6-(4-chlorophenyl)-2-(pyridin-3-yl)pyrimidin-4-yl)spiro[indene-1,4′-piperidine]]	100 to 1000 nM
Clc1ccc(-c2cc(NC3CCNC3)nc(-c3cccnc3)n2)cc1 (stereo not drawn) [Example 126, 6-(4-chlorophenyl)-2-(pyridin-3-yl)-N-(pyrrolidin-3-yl)pyrimidin-4-amine]	> 1000 nM
Clc1ccc(-c2cc(N[C@@H]3CCNC3)nc(-c3cccnc3)n2)cc1 [Example 127, (R)-6-(4-chlorophenyl)-2-(pyridin-3-yl)-N-(pyrrolidin-3-yl)pyrimidin-4-amine]	> 1000 nM
Clc1ccc(-c2cc(NC[C@@H]3CCNC3)nc(-c3cccnc3)n2)cc1 [Example 128, (R)-6-(4-chlorophenyl)-2-(pyridin-3-yl)-N-(pyrrolidin-3-ylmethyl)pyrimidin-4-amine]	> 1000 nM
Clc1ccc(-c2cc(NCCN3CCCC3)nc(-c3cccnc3)n2)cc1 [Example 129, 6-(4-chlorophenyl)-2-(pyridin-3-yl)-N-(2-(pyrrolidin-1-yl)ethyl)pyrimidin-4-amine]	> 1000 nM
Clc1ccc(-c2cc(NCCCN3CCCC3)nc(-c3cccnc3)n2)cc1 [Example 130, 6-(4-chlorophenyl)-2-(pyridin-3-yl)-N-(3-(pyrrolidin-1-yl)propyl)pyrimidin-4-amine]	> 1000 nM
Clc1ccc(-c2cc(NC3CCN(Cc4ccccc4)C3)nc(-c3cccnc3)n2)cc1 (stereo not drawn) [Example 132, N-(1-benzylpyrrolidin-3-yl)-6-(4-chlorophenyl)-2-(pyridin-3-yl)pyrimidin-4-amine]	100 to 1000 nM
O[C@@H]1CNC[C@@H]1Nc1cc(-c2ccc(Cl)cc2)nc(-c2cccnc2)n1 [Example 133, (3R,4S)-4-((6-(4-chlorophenyl)-2-(pyridin-3-yl)pyrimidin-4-yl)amino)pyrrolidin-3-ol]	> 1000 nM
O[C@H]1CNC[C@H]1Nc1cc(-c2ccc(Cl)cc2)nc(-c2cccnc2)n1 [Example 134, (3S,4R)-4-((6-(4-chlorophenyl)-2-(pyridin-3-yl)pyrimidin-4-yl)amino)pyrrolidin-3-ol]	> 1000 nM
CC(O)C(C)Nc1cc(-c2ccc(Cl)cc2)nc(-c2cccnc2)n1 (stereo not drawn) [Example 145, 3-((6-(4-chlorophenyl)-2-(pyridin-3-yl)pyrimidin-4-yl)amino)butan-2-ol]	100 to 1000 nM
Clc1ccc(-c2cc(NCCN3CCCCC3)nc(-c3cccnc3)n2)cc1 [Example 149, 6-(4-chlorophenyl)-N-(2-(piperidin-1-yl)ethyl)-2-(pyridin-3-yl)pyrimidin-4-amine]	> 1000 nM
OC1(c2cccc(C(F)(F)F)c2)CCN(c2cc(-c3ccc(Cl)cc3)nc(-c3cccnc3)n2)CC1 [Example 151, 1-(6-(4-chlorophenyl)-2-(pyridin-3-yl)pyrimidin-4-yl)-4-(3-(trifluoromethyl)phenyl)piperidin-4-ol]	> 1000 nM
OC1(c2ccc(Cl)cc2)CCN(c2cc(-c3ccc(Cl)cc3)nc(-c3cccnc3)n2)CC1 [Example 153, 4-(4-chlorophenyl)-1-(6-(4-chlorophenyl)-2-(pyridin-3-yl)pyrimidin-4-yl)piperidin-4-ol]	> 1000 nM
CC(=O)C1(c2ccccc2)CCN(c2cc(-c3ccc(Cl)cc3)nc(-c3cccnc3)n2)CC1 [Example 155, 1-(1-(6-(4-chlorophenyl)-2-(pyridin-3-yl)pyrimidin-4-yl)-4-phenylpiperidin-4-yl)ethan-1-one]	> 1000 nM

The next lines start with the values.

IC50	SMILES
10 to 100 nM	CN1CCN(C2CCN(c3cc(-c4ccc(Cl)cc4)nc(-c4cccnc4)n3)C2)CC1 (stereo not drawn) [Example 122, 4-(4-chlorophenyl)-6-(3-(4-methylpiperazin-1-yl)pyrrolidin-1-yl)-2-(pyridin-3-yl)pyrimidine]
> 1000 nM	CN1CCCC1CCNc1cc(-c2ccc(Cl)cc2)nc(-c2cccnc2)n1 (stereo not drawn) [Example 131, 6-(4-chlorophenyl)-N-(2-(1-methylpyrrolidin-2-yl)ethyl)-2-(pyridin-3-yl)pyrimidin-4-amine]
10 to 100 nM	Clc1ccc(-c2cc(N3CCCC3)nc(-c3cccnc3)n2)cc1 [Example 135, 4-(4-chlorophenyl)-2-(pyridin-3-yl)-6-(pyrrolidin-1-yl)pyrimidine]
100 to 1000 nM	CC1CCCN1c1cc(-c2ccc(Cl)cc2)nc(-c2cccnc2)n1 (stereo not drawn) [Example 136, 4-(4-chlorophenyl)-6-(2-methylpyrrolidin-1-yl)-2-(pyridin-3-yl)pyrimidine]
< 10 nM	OCC1CCN(c2cc(-c3ccc(Cl)cc3)nc(-c3cccnc3)n2)C1 (stereo not drawn) [Example 138, (1-(6-(4-chlorophenyl)-2-(pyridin-3-yl)pyrimidin-4-yl)pyrrolidin-3-yl)methanol]
10 to 100 nM	F[C@@H]1CCN(c2cc(-c3ccc(Cl)cc3)nc(-c3cccnc3)n2)C1 [Example 139, (R)-4-(4-chlorophenyl)-6-(3-fluoropyrrolidin-1-yl)-2-(pyridin-3-yl)pyrimidine]
> 1000 nM	NC1CCN(c2cc(-c3ccc(Cl)cc3)nc(-c3cccnc3)n2)C1 (stereo not drawn) [Example 140, 1-(6-(4-chlorophenyl)-2-(pyridin-3-yl)pyrimidin-4-yl)pyrrolidin-3-amine]
> 1000 nM	CNC1CCN(c2cc(-c3ccc(Cl)cc3)nc(-c3cccnc3)n2)C1 (stereo not drawn) [Example 141, 1-(6-(4-chlorophenyl)-2-(pyridin-3-yl)pyrimidin-4-yl)-N-methylpyrrolidin-3-amine]
100 to 1000 nM	COC(=O)[C@@H]1CCCN1c1cc(-c2ccc(Cl)cc2)nc(-c2cccnc2)n1 [Example 142, methyl (6-(4-chlorophenyl)-2-(pyridin-3-yl)pyrimidin-4-yl)prolinate]
< 10 nM	OC[C@@H]1CCCN(c2cc(-c3ccc(Cl)cc3)nc(-c3cccnc3)n2)C1 [Example 147, (R)-(1-(6-(4-chlorophenyl)-2-(pyridin-3-yl)pyrimidin-4-yl)piperidin-3-yl)methanol]
10 to 100 nM	OC[C@H]1CCCN(c2cc(-c3ccc(Cl)cc3)nc(-c3cccnc3)n2)C1 [Example 148, (S)-(1-(6-(4-chlorophenyl)-2-(pyridin-3-yl)pyrimidin-4-yl)piperidin-3-yl)methanol]
< 10 nM	N#CC1CCN(c2cc(-c3ccc(Cl)cc3)nc(-c3cccnc3)n2)CC1 [Example 150, 1-(6-(4-chlorophenyl)-2-(pyridin-3-yl)pyrimidin-4-yl)piperidine-4-carbonitrile]
100 to 1000 nM	Clc1ccc(-c2cc(N3CCC(N4CCCC4)CC3)nc(-c3cccnc3)n2)cc1 [Example 152, 4-(4-chlorophenyl)-2-(pyridin-3-yl)-6-(4-(pyrrolidin-1-yl)piperidin-1-yl)pyrimidine]
< 10 nM	Clc1ccc(-c2cc(N3CCC(N4CCOCC4)CC3)nc(-c3cccnc3)n2)cc1 [Example 156, 4-(1-(6-(4-chlorophenyl)-2-(pyridin-3-yl)pyrimidin-4-yl)piperidin-4-yl)morpholine]
